The results in this text go back to patent US12521356B2, “Compositions and methods for treating pain, inflammation, infection, malaria, and sepsis” (Duke University, priority 2018, dated 2026).

One assay deals with T1, CHEM23 (Homo sapiens, UniProt Q99788).
T1 sequence (Q99788 1-373): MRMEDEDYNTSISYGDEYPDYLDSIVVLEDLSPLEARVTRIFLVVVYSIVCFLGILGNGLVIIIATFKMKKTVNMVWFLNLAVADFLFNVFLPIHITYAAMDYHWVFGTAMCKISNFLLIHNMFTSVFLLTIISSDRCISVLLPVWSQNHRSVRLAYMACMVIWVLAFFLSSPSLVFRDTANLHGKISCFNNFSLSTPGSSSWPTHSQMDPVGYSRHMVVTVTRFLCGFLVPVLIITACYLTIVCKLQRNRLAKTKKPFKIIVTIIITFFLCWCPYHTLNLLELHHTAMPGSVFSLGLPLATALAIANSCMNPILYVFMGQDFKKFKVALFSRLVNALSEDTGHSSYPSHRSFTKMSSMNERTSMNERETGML
Briefly: Dot blot binding assay, positive control CHEM23. As to the method: (§1) Lipids overlay assay. Lipids membrane coating and protein overlay assay was conducted as previously described (Ji R R, et al. Science 2016, 354, 572-577). Ethanol and chloroform soluble fatty acids were directly loaded on hydrophobic PVDF membrane (Bio-Rad). The fatty acids (NPD1, RvD1, RvE1, and DHA) coated membranes were dried and blocked with 1% BSA. The cell lysate and purified GPR37-V5 protein were incubated with the coating membrane for 2 h, and the binding was detected by anti-V5 tagged antibody (mouse, 1:1000, Thermo scientific, Catalog: 46-0705).
(§2) HEK cell culture and transfection. HEK293 flip-in cell line was purchased from Duke Cell Culture Facility. Cells were cultured in high glucose (4.5 g/L) Dulbecco's Modified Eagle's Medium containing 10% (v/v) fetal bovine serum (Gibco). Transfection (2 μg cDNA) was performed with Lonza electroporation (Lonza) at 70% confluency and the transfected cells were cultured in the same growth medium for 48 h before use. The hGPR37-V5 pLenti304 plasmids were obtained from DNASU (Tempe, AZ), and hGPR32, hChemR23 and hALX pcDNA3 plasmids were provided by Dr. Serhan from Harvard Medical School, Boston.
To determine whether NPD1 and TX14 bind to GPR37, we conducted dot blot assay by coating the blots with different concentrations of NPD1 and TX14 and included RvE1 as a control. […]

Assay [1] addresses T2, GPR37 (Homo sapiens, UniProt O15354).
T2 construct: host or cells: HEK293 flip-in cells
T2 sequence (O15354 27-613): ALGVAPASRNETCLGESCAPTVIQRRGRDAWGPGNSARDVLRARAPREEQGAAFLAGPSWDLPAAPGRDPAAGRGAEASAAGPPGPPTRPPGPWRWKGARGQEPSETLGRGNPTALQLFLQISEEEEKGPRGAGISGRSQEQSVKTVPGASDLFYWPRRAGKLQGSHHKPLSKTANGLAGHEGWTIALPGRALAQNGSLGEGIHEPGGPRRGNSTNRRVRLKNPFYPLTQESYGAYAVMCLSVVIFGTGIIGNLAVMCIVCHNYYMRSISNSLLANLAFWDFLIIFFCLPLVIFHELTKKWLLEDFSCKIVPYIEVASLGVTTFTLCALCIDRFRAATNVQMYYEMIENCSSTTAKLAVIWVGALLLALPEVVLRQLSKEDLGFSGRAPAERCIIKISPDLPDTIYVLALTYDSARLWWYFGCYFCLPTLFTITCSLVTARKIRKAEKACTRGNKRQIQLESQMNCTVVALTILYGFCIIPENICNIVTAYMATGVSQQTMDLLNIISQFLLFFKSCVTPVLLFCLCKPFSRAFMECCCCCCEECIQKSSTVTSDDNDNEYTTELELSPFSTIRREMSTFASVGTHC
As to the kind of experiment: Dot blot binding assay with lysates of HEK293 cells with GPR37 cDNA or mock transfection. Particulars: for binding to GPR37-containing lysates: blots coated with different concentrations, lysates of HEK293 cells with GPR37 cDNA. As to the method:
as §1, §2
To determine whether NPD1 and TX14 bind to GPR37, we conducted dot blot assay by coating the blots with different concentrations of NPD1 and TX14 and included RvE1 as a control. The blots were then incubated with cell lysates from HEK293 cells with GPR37 cDNA or Mock transfection.

The target of the next assay is T3, ChemR23 (Homo sapiens, UniProt Q99788).
T3 construct: host or cells: HEK293 flip-in cells
T3 sequence (Q99788 1-373): T1 sequence (Q99788 1-373)
Briefly: Ca2+ imaging (Fura-2AM) in HEK293 cells transfected with ChemR23 cDNA. In kind it is cell-based. Particulars: HEK293 cells expressing ChemR23; RvE1 100 nM.
Excerpt: (§3) FIG. 10A-FIG. 10C. Characterization of intracellular Ca^2+ changes in HEK293 cells expressing ChemR23, GPR32, and ALX. Ca^2+ imaging with Fura-2AM indicator showing iCa^2+ levels in HEK293 cells transfected with ChemR23 (FIG. 10A), GPR32 (FIG. 10B), and ALX (FIG. 10C) cDNAs. Note that NPD1 fails to elicit iCa^2+ increase in HEK293 cells expressing ChemR23, GPR32, and ALX. […] ATP is included as a positive control. *P<0.05, compared with baseline n=44˜97 cells from 3 cultures. All the data are expressed as mean±s.e.m.
as §2
(§4) Calcium imaging. HEK 293 cells, with or without transfection of Gpr37, GPR32, ChemR23 or ALX1 cDNA, were loaded with 5 μM Fura-2AM (Invitrogen) for 1 hour and then were resuspended in normal external buffer (140 NaCl, 5 KCl, 2 CaCl2, 2 MgCl2, 10 HEPES, in mM, titrated to pH 7.4 with NaOH) or external Ca^2+-free buffer (140 NaCl, 2 MgCl2, 5 EGTA, 10 HEPES, in mM, titrated to pH 7.4 with NaOH). Peritoneal macrophages, collected from WT and Gpr37 KO mice, were loaded with 5 μM Fura-4AM (Invitrogen) for 1 hour and then were resuspended in normal external buffer. Images of the HEK 293 cells and macrophages with the excitation wavelength of 340 nm and 380 nm were captured with a cooled Digital CMOS camera (ORCA-Flash 4.0, Hamamatsu Photonics K.K, Japan). The ratio of fluorescence intensity of the two wavelengths in each experiment was analyzed using MetaFluor (Molecular Devices). The Shutter speed and wavelength was controlled by Lambda DG-4 system (Sutter instrument Co., Novato, CA). […]

Assay [2] addresses T2, GPR37. As to the kind of experiment: Ca2+ imaging (Fura-2AM) in HEK293 cells transfected with human GPR37 cDNA. Format: cell-based. Particulars: GPR37-expressing HEK293 cells; for intracellular Ca2+ (iCa2+) increase: 3 min. The protocol: as §2
Calcium imaging. HEK 293 cells, with or without transfection of Gpr37, GPR32, ChemR23 or ALX1 cDNA, were loaded with 5 μM Fura-2AM (Invitrogen) for 1 hour and then were resuspended in normal external buffer (140 NaCl, 5 KCl, 2 CaCl2, 2 MgCl2, 10 HEPES, in mM, titrated to pH 7.4 with NaOH) or external Ca^2+-free buffer (140 NaCl, 2 MgCl2, 5 EGTA, 10 HEPES, in mM, titrated to pH 7.4 with NaOH). Peritoneal macrophages, collected from WT and Gpr37 KO mice, were loaded with 5 μM […] (Invitrogen) for 1 hour and then were resuspended in normal external buffer. Images of the HEK 293 cells and macrophages with the excitation wavelength of 340 nm and 380 nm were captured with a cooled Digital CMOS camera (ORCA-Flash 4.0, Hamamatsu Photonics K.K, Japan). The ratio of fluorescence intensity of the two wavelengths in each experiment was analyzed using MetaFluor (Molecular Devices). The Shutter speed and wavelength was controlled by Lambda DG-4 system (Sutter instrument Co., Novato, CA). Values from each of the experiments were normalized to the baseline ratio of 340/380 nm.
In order to investigate how GPR37 regulates intracellular signaling, we conducted Ca^2+ imaging in HEK293 cells that overexpress GPR37. […] Thus, we hypothesized TX14 and SPM may activate the same receptors and elicit similar intracellular responses. We transfected HEK293 cells with human GPR37 cDNA, loaded these cells with Ca^2+ dye Fura-2AM, and stimulated them with TX14 and various SPMs, using ionomycin (2 μM) as a positive control for Ca^2+ influx (FIG. 2A, FIG. 2B, FIG. 2C).

The target in a further assay is T4, GPR32 (Homo sapiens, UniProt O75388).
T4 construct: host or cells: HEK293 flip-in cells
As to the kind of experiment: Ca2+ imaging (Fura-2AM) in HEK293 cells transfected with GPR32 cDNA. Format: cell-based. Particulars: HEK293 cells expressing GPR32; RvD1 100 nM.
Excerpt: as §3, §2, §4

T4 sequence (O75388 whole entry): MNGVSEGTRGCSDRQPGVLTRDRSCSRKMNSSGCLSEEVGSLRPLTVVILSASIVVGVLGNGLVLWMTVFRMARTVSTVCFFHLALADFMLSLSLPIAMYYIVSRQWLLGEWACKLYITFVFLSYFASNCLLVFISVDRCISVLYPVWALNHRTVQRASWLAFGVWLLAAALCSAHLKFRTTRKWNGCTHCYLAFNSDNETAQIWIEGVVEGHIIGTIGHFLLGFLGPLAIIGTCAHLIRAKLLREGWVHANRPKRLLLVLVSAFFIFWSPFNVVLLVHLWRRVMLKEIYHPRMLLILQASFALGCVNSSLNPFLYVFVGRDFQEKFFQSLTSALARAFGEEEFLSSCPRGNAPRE

As for `CC[C@@H](O)/C=C/C=C\C[C@@H](O)/C=C/C=C/C=C\[C@@H](O)CCCC(=O)O` [RvE1], at CHEM23, the “binding to CHEM23” value is reported as “strong binding”. For the same compound, the “binding to GPR37-containing lysates” value at GPR37 [1] was “not”. Besides, the “iCa2+ increase / Ca2+ response” value at ChemR23 was “failed to evoke Ca^2+ responses”. On GPR37 [2] (100 nM), the “intracellular Ca2+ (iCa2+) increase” value is “failed to increase iCa^2+”.
As usually defined, the EC50 is the concentration at which the effect is half-maximal. Take `CC/C=C\C[C@H](O)\C=C/C=C/C=C/[C@H](O)C/C=C\C/C=C\CCC(=O)O` [NPD1, neuroprotectin D1]: the “binding to GPR37-containing lysates” value on GPR37 [1] is on record as “dose-dependent binding”. Also, the “binding affinity to GPR37, comparison” value at GPR37 [1] (dose-response curve analysis) is given as “higher binding affinity to GPR37 than TX14”. Besides, the “binding of lysates from mock transfection (GPR37-negative)” value on GPR37 [1] (mock-transfected HEK293 lysates) is on record as “did not show binding activities”. Besides, the “iCa2+ increase / Ca2+ response” value on GPR32 and on ChemR23 was “failed to elicit iCa^2+ increase” in each case. Besides, the “intracellular Ca2+ (iCa2+) increase” value at GPR37 [2] (30 nM) is “elicited significant increases”. For the same compound, on GPR37 [2] (dose response, read-out: EC50 of iCa2+ increase), the EC50 came out at 26 nM.
Regarding `CC/C=C\C[C@H](O)/C=C/C=C\C=C\C=C\[C@@H](O)[C@@H](O)C/C=C\CCC(=O)O` [RvD1], the “iCa2+ increase / Ca2+ response” value at GPR32 is reported as “failed to evoke Ca^2+ responses”. Also, the “intracellular Ca2+ (iCa2+) increase” value on GPR37 [2] (100 nM) was “failed to increase iCa^2+”.
